Drawing on ChEMBL document CHEMBL4665710, “Myrcaulones A-C, Unusual Rearranged Triketone-Terpene Adducts from Myrciariacauliflora” (J Nat Prod, 2020), this text covers Activity for two compounds.

Series [1] concerns RAW264.7. Nature of the series: Anti-inflammatory activity in mouse RAW 264.7 cells assessed as reduction in LPS-induced TNF-alpha production preincubated for 2 hrs followed by LPS-stimulation measured after 24 hrs by ELISA. Type of series: functional, cell-based. To be noted: time 26.0 hrs. (ELISA stands for enzyme-linked immunosorbent assay.)
Series [2] concerns RAW264.7. Nature of the series: Anti-inflammatory activity in mouse RAW 264.7 cells assessed as reduction in LPS-induced nitric oxide production preincubated for 2 hrs followed by LPS-stimulation measured after 24 hrs by Griess reagent method. Type of series: functional, cell-based. Conditions: time 26.0 hrs. A general note: The Griess reaction detects nitrite, a stable product of nitric oxide.

For series [3], the system named is RAW264.7. The series can be described thus: Anti-inflammatory activity in mouse RAW 264.7 cells assessed as reduction in LPS-induced TNF-alpha production at 7 uM preincubated for 2 hrs followed by LPS-stimulation measured after 24 hrs by ELISA. Type of series: functional, cell-based. To be noted: time 26.0 hrs.
In series [4] the test system is RAW264.7. Nature of the series: Anti-inflammatory activity in mouse RAW 264.7 cells assessed as reduction in LPS-induced nitric oxide production at 7 uM preincubated for 2 hrs followed by LPS-stimulation measured after 24 hrs by Griess reagent method. Format: functional, cell-based. Conditions: time 26.0 hrs.
Series [5] deals with RAW264.7. Nature of the series: Cytotoxicity against mouse RAW 264.7 cells assessed as reduction in cell viability by MTT assay. Type of series: cell-based.

Activity calls are given as the source filed them. The rule behind the calls is not given here.

For `CC[C@H](C)[C@H]1C[C@@]2(CC[C@H]3C[C@@H]2C3(C)C)OC2=C1C(=O)[C@](OC)(C(C)=O)C2`, the Activity entry is “Dose-dependent effect” in the series with RAW264.7 [1], “Dose-dependent effect” with RAW264.7 [2] and “Non-Toxic” in the series on RAW264.7 [5]. Further, the outcome in the series on RAW264.7 [3] and in the series on RAW264.7 [4] was Active.

For `CO[C@@]1(C(C)=O)CC2=C(C1=O)[C@H](C(C)C)C[C@@]1(CC[C@H]3C[C@@H]1C3(C)C)O2`, the results for the Activity result in the series with RAW264.7 [1], in the series on RAW264.7 [2] and in the series with RAW264.7 [5] were “Dose-dependent effect”, “Dose-dependent effect” and “Non-Toxic”, respectively. Besides, the outcome with RAW264.7 [3] and with RAW264.7 [4] was Active.
